In patent publication US20220357341A1, “COMPOSITIONS AND METHODS FOR AN IL-17 TARGET ENGAGEMENT ASSAY WITH SMALL MOLECULE MODULATORS” (Janssen Pharmaceutica NV, priority 2019, published 2022):

B1: mAb4538 (Janssen Biotech, Inc.) (antibody, human IgG1, lambda, V domains shown)
VH: QVQLQQSGPGLVKPSQTLSLTCAISGDSVSSSSAAWGWIRQSPSRGLEWLGRISYRSKWYNDYAVSVKSRITINPDTSKNQFSLQLNSVTPEDTAVYYCAREVDSMYYSYFDIWGQGTLVTVSS
VL: EIVLTQSPATLSLSPGERATLSCRASQNVWAFYLAWYQQKPGQAPRLLIYGASNRATGIPARFSGSGSGTDFTLTISSLEPEDFAVYYCQQYRSTLSLTFGQGTKVEIKG
notes: also called human mAb4538 antibody

What follows are molecules tested against T1, IL-17 (Homo sapiens, UniProt Q16552) (assay: Free IL-17 ELISA: capture antibody of DuoSet ELISA kit DY317 paired with mAb4538 as detection agent, IL-17 titration with 10 μM SM modulator). Conditions: capture antibody of DuoSet ELISA kit DY317, detection agent mAb4538 500 ng/ml, FIGS. 2A-2F.
T1 construct: serial dilutions of recombinant IL-17 were prepared in diluent
Assay type: binding
Experimental: Two-fold and 8-point serial dilutions of recombinant IL-17 were prepared in diluent starting from 1 ng/ml, in duplicate. For testing differentiating property on SM modulators, IL-17 calibration samples were prepared in the presence of 10 μM SM modulators or vehicle control containing 0.1% DMSO. IL-17 samples were incubated for 1 hour at 37° C.
(§1) High binding 96-well plates were coated with 100 μL/well of 4 μg/ml capture antibody in PBS overnight at room temperature. Coated plates were washed 6×400 μL/well on plate washer (Zoom HT Microplate Washer) and blocked with 300 μL/well blocker (1% BSA in PBS) at room temperature for 2.5 hours followed by 6×400 μL/well on plate washer.
Samples were prepared by incubating titrated IL-17 with SM modulators at final concentration of 10 μM. IL-17 levels were measured in ELISA assay by adding 95 μL/well samples to the capture antibody coated plates. Plates were kept at room temperature for 30 minutes and then 5 μL/well of detecting agent were added to a final of 500 ng/mL, kept at room temperature for another 30 minutes, followed by washing 6×400 μL/well on plate washer. Development of color for measurement was performed by adding streptavidin conjugated horseradish peroxidase at 100 μL/well and incubated for 20 minutes at room temperature in the dark, followed by 6×400 μL/well on plate washer, and then addition of 100 μL/well pf substrate solution, incubated for 20 minutes at room temperature in the dark. Reaction was then stopped by addition of 50 μL/well of stop solution and plates were measured in plate reader at 450-540 nm.
(§2) Optical density (OD) readout from plate reader (Molecular Devices Spectra Max 340fPC) were analyzed with Softmax Pro6.3 and GraphPad Prism, and plotted as dose response curve of OD values vs IL-17 concentrations.

T1 sequence (Q16552 24-155): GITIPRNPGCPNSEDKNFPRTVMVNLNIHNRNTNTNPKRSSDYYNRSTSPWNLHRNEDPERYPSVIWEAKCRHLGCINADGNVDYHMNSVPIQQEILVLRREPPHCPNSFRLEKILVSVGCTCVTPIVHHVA

| Molecule | detection of free IL-17 versus SM modulator-bound IL-17 (OD vs IL-17 concentration) |
| --- | --- |
| NC(=O)CC[C@H]1NC(=O)[C@@H](Cc2ccc(NC(=O)[C@H](Cc3ccccc3Cl)NC(=O)Cc3ccc(F)cc3)cc2)NC(=O)CC2(CCCC2)CC(=O)NCCCCCNC1=O [Compound #2] | detection of free IL-17, but not modulator-bound IL-17 |
| O=C(CC1(CC(=O)N2CCCC2)CCCC1)NCCc1ccc(NC(=O)[C@H](Cc2ccccc2Cl)NC(=O)C(F)(F)c2ccccc2)cc1 [Compound #6] | detection of free IL-17, but not modulator-bound IL-17 |
| O=C1CNC(=O)[C@@H](Cc2ccc(NC(=O)[C@H](Cc3ccccc3Cl)NC(=O)Cc3ccccc3)cc2)NC(=O)CC2(CCCC2)CC(=O)NCCCCCN1 [Compound #5] | detection of free IL-17, but not modulator-bound IL-17 |
| C[C@H]1NC(=O)[C@@H](Cc2ccc(NC(=O)[C@H](Cc3ccccc3Cl)NC(=O)Cc3ccc(CO)cc3)cc2)NC(=O)CC2(CCCC2)CC(=O)NCCCCCNC1=O [Compound #4] | detection of free IL-17, but not modulator-bound IL-17 |
| C[C@H]1NC(=O)[C@@H](Cc2ccc(NC(=O)[C@H](Cc3ccccc3Cl)NC(=O)Cc3ccc(F)cc3)cc2)NC(=O)CC2(CCCC2)CC(=O)N[C@H](C(=O)O)CCCCNC1=O [Compound #3] | detection of free IL-17, but not modulator-bound IL-17 |

What follows are molecules tested against T2, human IL-17 (interleukin 17A), recombinant, free (not bound to a small molecule modulator) (human, UniProt Q16552 24-155, limits assumed) (assay: sandwich ELISA: plate coated with capture antibody of DuoSet DY317, IL-17A titrated in 0.1% DMSO vehicle, mAb4538 at 500 ng/mL as detection agent, streptavidin-HRP readout). Conditions: not given.
T2 construct: Recombinant IL-17 used as calibrator in the sandwich ELISAs; also called IL-17A; free IL-17
Experimental: as §1
Samples were prepared by incubating titrated IL-17 with SM modulators at final concentration of 10 μM. IL-17 levels were measured in ELISA assay by adding 95 μL/well samples to the capture antibody coated plates. Plates were kept at room temperature for 30 minutes and then 5 μL/well of detecting agent were added to a final of 500 ng/mL, kept at room temperature for another 30 minutes, followed by washing 6×400 μL/well on plate washer. […] Reaction was then stopped by addition of 50 μL/well of stop solution and plates were measured in plate reader at 450-540 nm.
as §2

T2 sequence (Q16552 24-155 limits assumed): as the sequence (Q16552 24-155) above

| Molecule | binding result |
| --- | --- |
| B1 | binds |
